From patent US8802597B2, “Herbicidal pyrimidines” (E I du Pont de Nemours and Company, priority 2003, dated 2014)

Assays:
Type in all cases: in vivo
[1] = test system: velvetleaf (Abutilon theophrasti); assay: Test A pre/postemergence
Procedure, shortened: (§1)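 Visual injury scores on a 0–100 scale, 100 being complete control, were assigned roughly ten days after treatment by comparison with untreated greenhouse controls. Test chemicals, formulated with surfactant in non-phytotoxic solvent, were sprayed onto soil preemergence and onto 1–2-leaf plants 2–10 cm tall postemergence.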

[2] = test system: barnyardgrass (Echinochloa crus-galli); assay: Test A pre/postemergence
Procedure, shortened: as §1

[3] = test system: giant foxtail (Setaria faberi); assay: Test A pre/postemergence
Procedure, shortened: as §1

[4] = test system: morningglory (Ipomoea spp.); assay: Test A pre/postemergence
Procedure, shortened: as §1

[5] = test system: redroot pigweed (Amaranthus retroflexus); assay: Test A pre/postemergence
Procedure, shortened: as §1

[6] = test system: crabgrass (Digitaria sanguinalis); assay: Test A pre/postemergence
Procedure, shortened: as §1

[7] = test system: chickweed (Stellaria media); assay: Test C postemergence; conditions: for Chickweed plant response rating: 125 g ai/ha, scale 0 to 100 (0 no effect, 100 complete control)
Procedure, shortened: (§2)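 Applications: preemergence onto seeded soil and postemergence onto 1- to 4-leaf seedlings, compound carried in non-phytotoxic solvent plus surfactant. Kept in greenhouse 12 to 14 days. Scored visually relative to untreated controls, 0 (no effect) to 100 (complete control).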

[8] = test system: giant foxtail (Setaria faberii); assay: Test C pre/postemergence; conditions: Postemergence; for Foxtail, Giant plant response rating: 125 g ai/ha, scale 0 to 100 (0 no effect, 100 complete control)
Procedure, shortened: as §2

[9] = test system: yellow nutsedge (Cyperus esculentus); assay: Test C pre/postemergence; conditions: Postemergence; for Nutsedge, Yellow plant response rating: 125 g ai/ha, scale 0 to 100 (0 no effect, 100 complete control)
Procedure, shortened: as §2

[10] = test system: Surinam grass (Brachiaria decumbens); assay: Test C pre/postemergence; conditions: Postemergence; for Surinam Grass plant response rating: 125 g ai/ha, scale 0 to 100 (0 no effect, 100 complete control)
Procedure, shortened: as §2

[11] = test system: crabgrass (Digitaria sanguinalis); assay: Test C pre/postemergence; conditions: Postemergence; for Crabgrass plant response rating: 125 g ai/ha, scale 0 to 100 (0 no effect, 100 complete control)
Procedure, shortened: as §2

[12] = Postemergence, 125 g ai/ha, 0 to 100 scale (0 no effect, 100 complete control)
[13] = Postemergence, 500 g ai/ha, 0 to 100 scale (0 no effect, 100 complete control)
[14] = Preemergence, 125 g ai/ha, 0 to 100 scale where 0 is no effect and 100 is complete control, approximately ten days
[15] = Preemergence, 500 g ai/ha, 0 to 100 scale where 0 is no effect and 100 is complete control, approximately ten days

`COC(=O)c1nc(-c2ccc(Cl)cc2)nc(N)c1Br` [Compound 83] was tested, and the “Plant response rating, Velvetleaf” value [1, 12] was 90, the “Plant response rating, Velvetleaf” value [1, 13] was 90 and the “Plant response rating, Velvetleaf” value [1, 14] was 15. For the same compound, the “Plant response rating, Velvetleaf” value [1, 15] was 30, the “Plant response rating, Barnyardgrass” value [2, 12] was 0 and the “Plant response rating, Barnyardgrass” value [2, 13] was 10. The “Plant response rating, Barnyardgrass” value [2, 14] was 0, the “Plant response rating, Barnyardgrass” value [2, 15] was 5 and the “Plant response rating, Foxtail, Giant” value [3, 12] was 0. The “Plant response rating, Foxtail, Giant” value [3, 13] was 10, the “Plant response rating, Foxtail, Giant” value [3, 14] was 0 and the “Plant response rating, Foxtail, Giant” value [3, 15] was 0. The “Plant response rating, Morningglory” value [4, 12] was 55, the “Plant response rating, Morningglory” value [4, 13] was 75 and the “Plant response rating, Morningglory” value [4, 14] was 0. The “Plant response rating, Morningglory” value [4, 15] was 10, the “Plant response rating, Pigweed” value [5, 12] was 70 and the “Plant response rating, Pigweed” value [5, 13] was 85. The “Plant response rating, Pigweed” value [5, 14] was 20, the “Plant response rating, Pigweed” value [5, 15] was 50 and the “Plant response rating, Crabgrass” value [6, 12] was 0. The “Plant response rating, Crabgrass” value [6, 13] was 10, the “Plant response rating, Crabgrass” value [6, 14] was 0 and the “Plant response rating, Crabgrass” value [6, 15] was 5. For the same compound, the “Plant response rating (scale of 0 to 100), Chickweed” value ([7]; 16 g ai/ha) was 0, the “Plant response rating (scale of 0 to 100), Chickweed” value ([7]; 31 g ai/ha) was 0 and the “Plant response rating (scale of 0 to 100), Chickweed” value ([7]; 62 g ai/ha) was 10. For the same compound, the “Chickweed plant response rating” value [7] was 30, the “Plant response rating (scale of 0 to 100), Foxtail, Giant” value ([8]; 16 g ai/ha) was 0 and the “Plant response rating (scale of 0 to 100), Foxtail, Giant” value ([8]; 31 g ai/ha) was 0. The “Plant response rating (scale of 0 to 100), Foxtail, Giant” value ([8]; 62 g ai/ha) was 20, the “Foxtail, Giant plant response rating” value [8] was 40 and the “Plant response rating (scale of 0 to 100), Nutsedge, Yellow” value ([9]; 16 g ai/ha) was 60. For the same compound, the “Plant response rating (scale of 0 to 100), Nutsedge, Yellow” value ([9]; 31 g ai/ha) was 60, the “Plant response rating (scale of 0 to 100), Nutsedge, Yellow” value ([9]; 62 g ai/ha) was 60 and the “Nutsedge, Yellow plant response rating” value [9] was 75. For the same compound, the “Plant response rating (scale of 0 to 100), Surinam Grass” value ([10]; 16 g ai/ha) was 20, the “Plant response rating (scale of 0 to 100), Surinam Grass” value ([10]; 31 g ai/ha) was 30 and the “Plant response rating (scale of 0 to 100), Surinam Grass” value ([10]; 62 g ai/ha) was 45. For the same compound, the “Surinam Grass plant response rating” value [10] was 65, the “Plant response rating (scale of 0 to 100), Crabgrass” value ([11]; 16 g ai/ha) was 25 and the “Plant response rating (scale of 0 to 100), Crabgrass” value ([11]; 31 g ai/ha) was 45. For the same compound, the “Plant response rating (scale of 0 to 100), Crabgrass” value ([11]; 62 g ai/ha) was 65 and the “Crabgrass plant response rating” value [11] was 75.
`Nc1nc(-c2ccc(Cl)cc2)nc(C(=O)O)c1Br` [Compound 88] was tested, and the “Plant response rating, Velvetleaf” value [1, 12] was 90, the “Plant response rating, Velvetleaf” value [1, 13] was 95 and the “Plant response rating, Velvetleaf” value [1, 14] was 10. The “Plant response rating, Velvetleaf” value [1, 15] was 70, the “Plant response rating, Barnyardgrass” value [2, 12] was 50 and the “Plant response rating, Barnyardgrass” value [2, 13] was 85. The “Plant response rating, Barnyardgrass” value [2, 14] was 10, the “Plant response rating, Barnyardgrass” value [2, 15] was 55 and the “Plant response rating, Foxtail, Giant” value [3, 12] was 80. For the same compound, the “Plant response rating, Foxtail, Giant” value [3, 13] was 90, the “Plant response rating, Foxtail, Giant” value [3, 14] was 10 and the “Plant response rating, Foxtail, Giant” value [3, 15] was 50. For the same compound, the “Plant response rating, Morningglory” value [4, 12] was 60, the “Plant response rating, Morningglory” value [4, 13] was 85 and the “Plant response rating, Morningglory” value [4, 14] was 10. For the same compound, the “Plant response rating, Morningglory” value [4, 15] was 90, the “Plant response rating, Pigweed” value [5, 12] was 90 and the “Plant response rating, Pigweed” value [5, 13] was 95. The “Plant response rating, Pigweed” value [5, 14] was 80, the “Plant response rating, Pigweed” value [5, 15] was 100 and the “Plant response rating, Crabgrass” value [6, 12] was 60. The “Plant response rating, Crabgrass” value [6, 13] was 85, the “Plant response rating, Crabgrass” value [6, 14] was 35 and the “Plant response rating, Crabgrass” value [6, 15] was 85. The “Plant response rating (scale of 0 to 100), Chickweed” value ([7]; 31 g ai/ha) was 80, the “Plant response rating (scale of 0 to 100), Chickweed” value ([7]; 62 g ai/ha) was 100 and the “Chickweed plant response rating” value [7] was 100. The “Plant response rating, Chickweed” value ([7]; 250 g ai/ha, scale 0 to 100) was 100, the “Plant response rating (scale of 0 to 100), Foxtail, Giant” value ([8]; 31 g ai/ha) was 55 and the “Plant response rating (scale of 0 to 100), Foxtail, Giant” value ([8]; 62 g ai/ha) was 75. The “Foxtail, Giant plant response rating” value [8] was 80, the “Plant response rating, Foxtail, Giant” value ([8]; 250 g ai/ha, scale 0 to 100) was 85 and the “Plant response rating (scale of 0 to 100), Nutsedge, Yellow” value ([9]; 31 g ai/ha) was 40. The “Plant response rating (scale of 0 to 100), Nutsedge, Yellow” value ([9]; 62 g ai/ha) was 45, the “Nutsedge, Yellow plant response rating” value [9] was 55 and the “Plant response rating, Nutsedge, Yellow” value ([9]; 250 g ai/ha, scale 0 to 100) was 75. For the same compound, the “Plant response rating (scale of 0 to 100), Surinam Grass” value ([10]; 31 g ai/ha) was 45, the “Plant response rating (scale of 0 to 100), Surinam Grass” value ([10]; 62 g ai/ha) was 60 and the “Surinam Grass plant response rating” value [10] was 80. The “Plant response rating, Surinam Grass” value ([10]; 250 g ai/ha, scale 0 to 100) was 85, the “Plant response rating (scale of 0 to 100), Crabgrass” value ([11]; 31 g ai/ha) was 75 and the “Plant response rating (scale of 0 to 100), Crabgrass” value ([11]; 62 g ai/ha) was 80. The “Crabgrass plant response rating” value [11] was 80 and the “Plant response rating, Crabgrass” value ([11]; 250 g ai/ha, scale 0 to 100) was 85.
